In patent publication US20240208992A1, “MACROCYCLES AS CFTR MODULATORS” (Idorsia Pharmaceuticals Ltd, priority 2021, published 2024):

Biological target: human F508del-CFTR (Homo sapiens, UniProt P13569, DEL508-508)
Assay: F508del-CFTR cell surface expression (corrector activity), DiscoveRx ß-galactosidase complementation chemiluminescence assay in recombinant U2OS cell line;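 also: U2OS cells co-expressing ProLink-tagged F508del-CFTR and a membrane-anchored enzyme acceptor, where more surface CFTR restores β-galactosidase activity measured by chemiluminescence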
Conditions: for EC50: EC50, F508del-CFTR cell surface expression; for Emax: U2OS
[1] = U2OS cell line, 16h compound incubation, geomean values
[2] = in relation to the Emax of the corrector lumacaftor (=100%), U2OS cell line, 16h compound incubation, arithmetic mean values
[3] = U2OS cells, 16h compound incubation, geomean values
[4] = in relation to Emax of corrector lumacaftor (=100%), arithmetic mean values

human F508del-CFTR, sequence (P13569 with tags, fused parts or gaps DEL508-508): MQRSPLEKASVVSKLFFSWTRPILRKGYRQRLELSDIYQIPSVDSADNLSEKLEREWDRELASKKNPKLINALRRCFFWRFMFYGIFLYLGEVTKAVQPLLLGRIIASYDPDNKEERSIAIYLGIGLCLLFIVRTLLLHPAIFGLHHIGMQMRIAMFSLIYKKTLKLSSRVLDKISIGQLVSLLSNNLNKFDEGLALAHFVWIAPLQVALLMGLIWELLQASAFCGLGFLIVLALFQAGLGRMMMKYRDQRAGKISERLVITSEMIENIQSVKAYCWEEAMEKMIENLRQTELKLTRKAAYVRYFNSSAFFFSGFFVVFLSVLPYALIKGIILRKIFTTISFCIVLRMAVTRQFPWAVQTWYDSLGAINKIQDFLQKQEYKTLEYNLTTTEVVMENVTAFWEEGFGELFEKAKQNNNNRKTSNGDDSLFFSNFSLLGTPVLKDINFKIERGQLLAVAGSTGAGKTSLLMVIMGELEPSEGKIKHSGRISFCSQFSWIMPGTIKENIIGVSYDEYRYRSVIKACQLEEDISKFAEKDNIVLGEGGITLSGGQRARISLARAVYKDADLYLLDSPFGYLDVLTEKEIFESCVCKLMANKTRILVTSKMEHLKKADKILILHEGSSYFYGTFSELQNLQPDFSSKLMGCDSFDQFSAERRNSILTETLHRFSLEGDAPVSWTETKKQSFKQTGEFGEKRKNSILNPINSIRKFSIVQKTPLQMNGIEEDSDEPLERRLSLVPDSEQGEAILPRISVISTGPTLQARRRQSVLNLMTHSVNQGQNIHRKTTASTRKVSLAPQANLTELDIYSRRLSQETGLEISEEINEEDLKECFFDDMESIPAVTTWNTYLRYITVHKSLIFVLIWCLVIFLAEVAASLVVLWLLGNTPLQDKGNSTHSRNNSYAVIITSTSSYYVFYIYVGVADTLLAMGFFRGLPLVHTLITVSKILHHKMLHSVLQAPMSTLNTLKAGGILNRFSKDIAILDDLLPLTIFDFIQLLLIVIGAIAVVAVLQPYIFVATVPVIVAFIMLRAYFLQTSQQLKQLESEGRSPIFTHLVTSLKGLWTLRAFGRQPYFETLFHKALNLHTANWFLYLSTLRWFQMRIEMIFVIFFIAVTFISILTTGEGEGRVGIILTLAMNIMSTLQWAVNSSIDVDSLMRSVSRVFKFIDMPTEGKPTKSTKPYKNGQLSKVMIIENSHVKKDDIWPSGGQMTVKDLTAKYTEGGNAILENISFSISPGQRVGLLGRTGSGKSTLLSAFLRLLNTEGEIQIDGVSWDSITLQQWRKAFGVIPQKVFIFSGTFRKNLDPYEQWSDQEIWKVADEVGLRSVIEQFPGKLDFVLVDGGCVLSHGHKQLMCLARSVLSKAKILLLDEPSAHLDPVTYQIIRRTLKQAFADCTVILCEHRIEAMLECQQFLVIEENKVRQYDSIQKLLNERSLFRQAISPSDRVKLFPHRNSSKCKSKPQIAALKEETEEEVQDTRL

| SMILES | EC50 [1] | Emax [2] | EC50 [3] | Emax [4] | further results |
| --- | --- | --- | --- | --- | --- |
| Cc1ccc(CCNC(=O)[C@@H]2CC(=O)N(C)[C@@H](CC(C)C)C(=O)N3CCOC[C@@H]3C(=O)N[C@H](Cc3ccccc3)COc3cnc4ccccc4c3C(=O)N2)c(C)c1 [Example 63, (9S,13S,19aR,22R)-22-benzyl-N-(2,4-dimethylphenethyl)-13-isobutyl-12-methyl-7,11,14,20-tetraoxo-7,8,9,10,11,12,13,14,16,17,19,19a,20,21,22,23-hexadecahydro-[1,4]oxazino[3′,4′:6,7][1]oxa[4,7,10,14]tetraazacycloheptadecino[17,16-c]quinoline-9-carboxamide] | 418 nM | 250% |  |  |  |
| CCOc1cccc(CCNC(=O)[C@@H]2CC(=O)N(C)[C@@H](CC(C)C)C(=O)N3CCN(C4CC4)C[C@@H]3C(=O)N[C@H](Cc3ccccc3)COc3ccc4nc(C)oc4c3C(=O)N2)c1 [Example 418, (8S,12S,18aR,21R)-21-benzyl-17-cyclopropyl-N-(3-ethoxyphenethyl)-12-isobutyl-4,11-dimethyl-6,10,13,19-tetraoxo-6,7,8,9,10,11,12,13,16,17,18,18a,19,20,21,22-hexadecahydro-15H-oxazolo[4′,5′:5,6]benzo[1,2-p]pyrazino[2,1-f][1]oxa[4,7,10,14]tetraazacycloheptadecine-8-carboxamide] |  |  | 276 nM | 259% |  |
| COc1cccc(CCNC(=O)[C@@H]2CC(=O)N(C)[C@@H](CC(C)C)C(=O)N3CCN(C4CCC4)C[C@@H]3C(=O)N[C@H](Cc3ccccc3)COc3cnc4ccccc4c3C(=O)N2)c1 [Example 391, (9S,13S,19aR,22R)-22-benzyl-18-cyclobutyl-13-isobutyl-N-(3-methoxyphenethyl)-12-methyl-7,11,14,20-tetraoxo-7,8,9,10,11,12,13,14,17,18,19,19a,20,21,22,23-hexadecahydro-16H-pyrazino[2′,1′:6,7][1]oxa[4,7,10,14]tetraazacycloheptadecino[17,16-c]quinoline-9-carboxamide] | 70 nM | 319% |  |  |  |
| CC(C)C[C@H]1C(=O)N(C)C2(CC2)C(=O)N[C@H](Cc2ccccc2)COc2cnc3ccc(F)cc3c2C(=O)N[C@H](C(=O)NCCc2cc(C3CC3)on2)CC(=O)N1C [Example 142, (3′S,7′S,13′R)-13′-benzyl-N-(2-(5-cyclopropylisoxazol-3-yl)ethyl)-20′-fluoro-7′-isobutyl-6′,9′-dimethyl-1′,5′,8′,11′-tetraoxo-2′,3′,4′,5′,6′,7′,8′,9′,11′,12′,13′,14′-dodecahydro-1′H-spiro[cyclopropane-1,10′-[1]oxa[4,7,10,14]tetraazacycloheptadecino[17,16-c]quinoline]-3′-carboxamide] | 194 nM | 381% |  |  |  |
| CN1C(=O)C[C@@H](C(=O)NCCc2ccc3c(c2)OCO3)NC(=O)c2c(ccc3ccccc23)OC[C@@H](Cc2ccccc2)NC(=O)CN(C[C@H]2CCCCO2)C(=O)[C@@H]1CC1CCC1 [Example 338, (3S,7S,13R)-N-(2-(benzo[d][1,3]dioxol-5-yl)ethyl)-13-benzyl-7-(cyclobutylmethyl)-6-methyl-1,5,8,11-tetraoxo-9-(((R)-tetrahydro-2H-pyran-2-yl)methyl)-1,2,3,4,5,6,7,8,9,10,11,12,13,14-tetradecahydronaphtho[1,2-p][1]oxa[4,7,10,14]tetraazacycloheptadecine-3-carboxamide] | 292 nM | 173% |  |  |  |
| COc1nccc2c1C(=O)N[C@H](C(=O)NCCc1cc(C3CC3)no1)CC(=O)N(C)[C@@H](CC(C)C)C(=O)N1CCC(F)(F)C[C@@H]1C(=O)N[C@H](Cc1ccccc1)CO2 [Example 663, (7S,11S,17aR,20R)-20-benzyl-N-(2-(3-cyclopropylisoxazol-5-yl)ethyl)-16,16-difluoro-11-isobutyl-4-methoxy-10-methyl-5,9,12,18-tetraoxo-5,6,7,8,9,10,11,12,15,16,17,17a,18,19,20,21-hexadecahydro-14H-dipyrido[2,1-f:3′,4′-p][1]oxa[4,7,10,14]tetraazacycloheptadecine-7-carboxamide] |  |  | 801 nM | 210% |  |
| COc1cccc(CCNC(=O)[C@@H]2CC(=O)N(C)[C@@H](CC(C)C)C(=O)N3CC=CC[C@@H]3C(=O)N[C@H](Cc3ccccc3)COc3ccc4ccccc4c3C(=O)N2)c1 [Example 376, (4aR,7R,18S,22S)-7-benzyl-22-isobutyl-N-(3-methoxyphenethyl)-21-methyl-5,16,20,23-tetraoxo-4,4a,5,6,7,8,16,17,18,19,20,21,22,23-tetradecahydro-1H-naphtho[1,2-p]pyrido[2,1-f][1]oxa[4,7,10,14]tetraazacycloheptadecine-18-carboxamide] | 156 nM | 284% |  |  |  |
| CC(C)C[C@H]1C(=O)N(C[C@@H]2CCCCO2)CC(=O)N[C@H](Cc2ccccc2)COc2ccc3ccccc3c2C(=O)N[C@H](C(=O)NCCc2ccc3c(c2)OCO3)CC(=O)N1C (racemic) [Example 163, (3RS,7S,13R)-N-(2-(benzo[d][1,3]dioxol-5-yl)ethyl)-13-benzyl-7-isobutyl-6-methyl-1,5,8,11-tetraoxo-9-(((S)-tetrahydro-2H-pyran-2-yl)methyl)-1,2,3,4,5,6,7,8,9,10,11,12,13,14-tetradecahydronaphtho[1,2-p][1]oxa[4,7,10,14]tetraazacycloheptadecine-3-carboxamide] | 377 nM | 185% |  |  |  |
| CCOCC[C@@H]1C(=O)N[C@H](Cc2ccccc2)COc2ccc3ncc(F)cc3c2C(=O)N[C@H](C(=O)NCCc2nc(C3CC3)no2)CC(=O)N(C)[C@@H](CC(C)C)C(=O)N1C [Example 976, (3S,7S,10R,13R)-13-Benzyl-N-(2-(3-cyclopropyl-1,2,4-oxadiazol-5-yl)ethyl)-10-(2-ethoxyethyl)-20-fluoro-7-isobutyl-6,9-dimethyl-1,5,8,11-tetraoxo-1,2,3,4,5,6,7,8,9,10,11,12,13,14-tetradecahydro-[1]oxa[4,7,10,14]tetraazacycloheptadecino[16,17-f]quinoline-3-carboxamide] |  |  |  |  | EC50 (U2OS cells, 16h compound incubation, geomean of several measurements): 179 nM; Emax (in relation to the Emax of the corrector lumacaftor (=100%), U2OS cells, 16h compound incubation, arithmetic mean): 348% |
| Cc1cc(CCNC(=O)[C@@H]2CC(=O)N(C)[C@@H](CC(C)C)C(=O)N3CCN(CCCO)C[C@@H]3C(=O)N[C@H](Cc3ccccc3)COc3ccc4ccccc4c3C(=O)N2)on1 [Example 452, (4aR,7R,18S,22S)-7-benzyl-3-(3-hydroxypropyl)-22-isobutyl-21-methyl-N-(2-(3-methylisoxazol-5-yl)ethyl)-5,16,20,23-tetraoxo-2,3,4,4a,5,6,7,8,16,17,18,19,20,21,22,23-hexadecahydro-1H-naphtho[1,2-p]pyrazino[2,1-f][1]oxa[4,7,10,14]tetraazacycloheptadecine-18-carboxamide] |  |  | 886 nM | 292% |  |
| Cc1cc(CCNC(=O)[C@@H]2CC(=O)N(C)[C@@H](CC(C)C)C(=O)N3CCN(S(=O)(=O)c4cccnc4)C[C@@H]3C(=O)N[C@H](Cc3ccccc3)COc3ccc4ccccc4c3C(=O)N2)on1 [Example 475, (4aR,7R,18S,22S)-7-benzyl-22-isobutyl-21-methyl-N-(2-(3-methylisoxazol-5-yl)ethyl)-5,16,20,23-tetraoxo-3-(pyridin-3-ylsulfonyl)-2,3,4,4a,5,6,7,8,16,17,18,19,20,21,22,23-hexadecahydro-1H-naphtho[1,2-p]pyrazino[2,1-f][1]oxa[4,7,10,14]tetraazacycloheptadecine-18-carboxamide] |  |  | 992 nM | 314% |  |
